Results reported in US9708336B2, “Metallo-beta-lactamase inhibitors” (priority 2014, dated 2017).
Read-outs that look alike come from different tables or passages of the source.

How the values were obtained:
VIM-1 = VIM-1 (Pseudomonas aeruginosa (strain ATCC 15692 / DSM 22644 / CIP 104116 / JCM 14847 / LMG 12228 / 1C / PRS 101 / PAO1), UniProt A0A0F7KYQ8); assay: Enzyme activity: determination of IC50, fluorescence assay with CCF2-FA substrate (VIM-1); format: biochemical
IMP-1 = IMP-1 (Serratia marcescens, UniProt P52699); assay: biochemical; format: biochemical; details: read-out: IMP-1 IC50
Sequence of IMP-1 (P52699 whole entry, looked up): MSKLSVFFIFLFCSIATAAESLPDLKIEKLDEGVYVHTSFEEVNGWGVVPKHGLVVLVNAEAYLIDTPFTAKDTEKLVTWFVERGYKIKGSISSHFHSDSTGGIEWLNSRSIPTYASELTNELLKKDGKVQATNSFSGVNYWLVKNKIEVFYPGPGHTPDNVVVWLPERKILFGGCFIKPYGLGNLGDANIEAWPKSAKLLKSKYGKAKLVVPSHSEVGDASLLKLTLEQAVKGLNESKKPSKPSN

NDM-1 = NDM-1 (Klebsiella pneumoniae, UniProt C7C422); assay: biochemical; format: biochemical; details: read-out: NDM-1 IC50
Sequence of NDM-1 (C7C422 whole entry, looked up, species assumed): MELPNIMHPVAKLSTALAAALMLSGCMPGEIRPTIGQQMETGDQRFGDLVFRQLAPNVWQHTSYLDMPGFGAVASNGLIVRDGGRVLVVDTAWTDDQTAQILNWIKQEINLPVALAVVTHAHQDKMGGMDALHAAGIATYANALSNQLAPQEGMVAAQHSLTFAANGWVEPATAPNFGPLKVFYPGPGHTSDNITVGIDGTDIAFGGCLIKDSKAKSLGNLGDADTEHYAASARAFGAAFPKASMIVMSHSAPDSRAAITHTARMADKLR

[1] = system: Serratia marcescens expressing IMP-1 (CL5741); assay: Antibiotic potentiation activity: synergistic concentration (MITC95) with imipenem, OD600 growth; format: cell-based; details: for Serratia marcescens expressing IMP-1 (CL5741) MITC95: concentration giving 95% inhibition of bacterial growth
Procedure, shortened: (§1)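 Absorbance after a 22–24 h, 35 °C incubation served as the read-out. Wells held bacteria (saline suspension diluted 1:100 into 1.1× CAMHB), imipenem at 4 μg/ml final or optionally 1 μg/ml, and test compound.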

[2] = system: Escherichia coli expressing NDM-1 (CLB30016); assay: as above; format: cell-based; details: for Escherichia coli expressing NDM-1 (CLB 30016) MITC95: concentration giving 95% inhibition of bacterial growth
Procedure, shortened: as §1

[3] = system: Klebsiella pneumoniae expressing VIM-1 (IHMA599644); assay: as above; format: cell-based; details: for Klebsiella pneumoniae expressing VIM-1 (IHMA 599644) MITC95: concentration giving 95% inhibition of bacterial growth
Procedure, shortened: as §1

[4] = VIM-1 IC50, VIM-1 enzyme, CCF2-FA fluorescence assay
[5] = IMP-1 enzyme, CCF2-FA fluorescence assay
[6] = NDM-1 enzyme, CCF2-FA fluorescence assay
[7] = Serratia marcescens expressing IMP-1 (CL5741), 95% growth inhibition
[8] = Escherichia coli expressing NDM-1 (CLB30016), 95% growth inhibition
[9] = Klebsiella pneumoniae expressing VIM-1 (IHMA599644), 95% growth inhibition
[10] = VIM-1 enzyme, CCF2-FA fluorescence assay, read-out: VIM-1 IC50
[11] = VIM-1 enzyme, CCF2-FA substrate, read-out: VIM-1 IC50
[12] = IMP-1 enzyme, CCF2-FA substrate
[13] = NDM-1 enzyme, CCF2-FA substrate
[14] = Serratia marcescens CL5741 (IMP-1), 95% growth inhibition
[15] = (CLB30016, NDM-1), 95% growth inhibition
[16] = Klebsiella pneumoniae IHMA599644 (VIM-1), 95% growth inhibition
[17] = VIM-1 IC50, fluorescence assay with CCF2-FA substrate
[18] = fluorescence assay with CCF2-FA substrate

SMILES | IC50 (IMP-1; [5]) | IC50 (NDM-1; [6]) | Serratia marcescens MITC95 [1, 7] | Escherichia coli MITC95 [2, 8] | Klebsiella pneumoniae MITC95 [3, 9] | IC50 (VIM-1; [10]) | IC50 (VIM-1; [11]) | IC50 (IMP-1; [12]) | IC50 (NDM-1; [13]) | Serratia marcescens MITC95 [1, 14] | Escherichia coli MITC95 [2, 15] | Klebsiella pneumoniae MITC95 [3, 16] | other results
Nc1ccc(-c2ccc(C(F)(F)F)c(S(N)(=O)=O)c2-c2nn[nH]n2)cn1 [Example 265, 3-(6-aminopyridin-3-yl)-2-(2H-tetrazol-5-yl)-6-(trifluoromethyl)benzenesulfonamide] | 6.93 nM | 2.65 nM | 0.4271 µM | 0.125 µM | 4.775 µM | – | – | – | – | – | – | – | IC50 (VIM-1; [4]): 1.26 nM
NS(=O)(=O)c1cccc(-c2ccc(CN3CC(O)C(F)C3)cc2)c1-c1nnn[nH]1 (stereo not drawn) [Example 396, 4′-[(3-fluoro-4-hydroxypyrrolidin-1-yl)methyl]-2-(1H-tetrazol-5-yl)biphenyl-3-sulfonamide] | 22.4 nM | 3.21 nM | 1.172 µM | 1.172 µM | 100 µM | 181 nM | – | – | – | – | – | – | –
CN(CCN1CCCC1)c1ccc(-c2cccc(S(N)(=O)=O)c2-c2nnn[nH]2)cn1 [Example 629, 3-[6-[methyl(2-pyrrolidin-1-ylethyl)amino]-3-pyridyl]-2-(1H-tetrazol-5-yl)benzenesulfonamide] | – | – | – | – | – | – | 668 nM | 799 nM | 43.6 nM | 25 µM | 4.688 µM | 100 µM | –
Nc1ccc(-c2ccc(CC[C@H]3CC[C@@H](N)CC3)c(S(N)(=O)=O)c2-c2nnn[nH]2)cn1 [Example 578, 6-(2-((1s,4r)-4-aminocyclohexyl)ethyl)-3-(6-aminopyridin-3-yl)-2-(1H-tetrazol-5-yl)benzenesulfonamide] | – | – | – | – | – | – | 11.1 nM | 47.1 nM | 1.85 nM | 12.5 µM | 3.125 µM | 50 µM | –
NC1CCC(c2ccc(-c3ccc(C4CCNCC4)cc3)c(-c3nn[nH]n3)c2S(N)(=O)=O)CC1 (stereo not drawn) [Example 459, 4-(4-aminocyclohexyl)-4′-(piperidin-4-yl)-2-(2H-tetrazol-5-yl)-[1,1′-biphenyl]-3-sulfonamide] | 86.6 nM | 1120 nM | 1.172 µM | 6.25 µM | 3.125 µM | 112 nM | – | – | – | – | – | – | –
Nc1ncnc2cc(-c3ccc(C(F)(F)F)c(S(N)(=O)=O)c3-c3nnn[nH]3)ccc12 [Example 749, 3-(4-aminoquinazolin-7-yl)-2-(1H-tetrazol-5-yl)-6-(trifluoromethyl)benzenesulfon-amide] | – | – | – | – | – | – | – | – | – | – | – | – | IC50 (VIM-1; [17]): 0.262 nM; IC50 (IMP-1; [18]): 4.12 nM; IC50 (NDM-1; [18]): 2.35 nM; Serratia marcescens MITC95 ([1]; CL5741 (IMP-1), 95% inhibition of bacterial growth): 12.5 µM; Escherichia coli MITC95 ([2]; CLB30016 (NDM-1), 95% inhibition of bacterial growth): 3.125 µM; Klebsiella pneumoniae MITC95 ([3]; IHMA599644 (VIM-1), 95% inhibition of bacterial growth): 6.25 µM
NS(=O)(=O)c1cccc(-c2ccc(CN3CCNC(=O)C3)cc2)c1-c1nnn[nH]1 [Example 386, 4′-[(3-oxopiperazin-1-yl)methyl]-2-(1H-tetrazol-5-yl)biphenyl-3-sulfonamide] | 32 nM | 3.23 nM | 1.563 µM | 6.25 µM | >200 µM | 120 nM | – | – | – | – | – | – | –
Nc1nc2c(-c3ccc(C(F)(F)F)c(S(N)(=O)=O)c3-c3nnn[nH]3)cccc2s1 [Example 423, 3-(2-amino-1,3-benzothiazol-4-yl)-2-(2H-tetrazol-5-yl)-6-(trifluoromethyl)benzenesulfonamide] | 1.29 nM | 0.378 nM | 0.125 µM | 1.086 µM | 3.125 µM | 0.711 nM | – | – | – | – | – | – | –
NS(=O)(=O)c1c(C(F)(F)F)ccc([C@H]2CC[C@@H](O)CC2)c1-c1nnn[nH]1 [Example 495] | – | – | – | – | – | – | 22.1 nM | 4.26 nM | 1.87 nM | 0.5859 µM | 2.344 µM | 25 µM | –
CC(NCc1ccc(-c2cccc(S(N)(=O)=O)c2-c2nnn[nH]2)cc1)c1nn[nH]n1 (stereo not drawn) [Example 353, 2-(1H-tetrazol-5-yl)-4′-({[1-(2H-tetrazol-5-yl)ethyl]amino}methyl)biphenyl-3-sulfonamide] | 28 nM | 4.1 nM | 1.172 µM | 2.344 µM | 100 µM | – | – | – | – | – | – | – | IC50 (VIM-1; [4]): 689 nM
Nc1nnc(C2CCN(c3ccnc(S(N)(=O)=O)c3-c3nnn[nH]3)CC2)s1 [Example 216, 4-[4-(5-amino-1,3,4-thiadiazol-2-yl)piperidin-1-yl]-3-(1H-tetrazol-5-yl)pyridine-2-sulfonamide] | – | – | – | – | – | – | – | – | – | – | – | – | IC50 (VIM-1; [17]): 96.7 nM; IC50 (IMP-1; [18]): 456 nM; IC50 (NDM-1; [18]): 40.4 nM; Serratia marcescens expressing IMP-1 (CL5741) MITC95 [1]: 12.5 µM; Escherichia coli expressing NDM-1 (CLB 30016) MITC95 [2]: 1.172 µM; Klebsiella pneumoniae expressing VIM-1 (IHMA 599644) MITC95 [3]: 18.75 µM
NS(=O)(=O)c1cccc(CCc2ccccn2)c1-c1nnn[nH]1 [Example 144, 3-(2-pyridin-2-ylethyl)-2-(1H-tetrazol-5-yl)benzenesulfonamide] | – | – | – | – | – | – | – | – | – | – | – | – | IC50 (VIM-1; fluorescence assay with CCF2-FA substrate, read-out: VIM-1 IC50): 1540 nM; IC50 (IMP-1; [18]): 4500 nM; IC50 (NDM-1; [18]): 121 nM; Serratia marcescens expressing IMP-1 (CL5741) MITC95 [1]: 200 µM; Escherichia coli expressing NDM-1 (CLB 30016) MITC95 [2]: 3.125 µM; Klebsiella pneumoniae expressing VIM-1 (IHMA 599644) MITC95 [3]: >200 µM
N#Cc1nc2c(-c3ccc(C(F)(F)F)c(S(N)(=O)=O)c3-c3nnn[nH]3)cccc2s1 [Example 483, 3-(2-Cyanobenzo[d]thiazol-4-yl)-2-(1H-tetrazol-5-yl)-6-(trifluoromethyl)benzenesulfonamide] | 2.12 nM | 0.755 nM | 25 µM | 6.25 µM | 12.5 µM | 0.216 nM | – | – | – | – | – | – | –
N[C@]1(c2ccc(-c3ccc(C(F)(F)F)c(S(N)(=O)=O)c3-c3nn[nH]n3)cc2)CCNC1 [Example 547, 3-[4-[(3S)-3-aminopyrrolidin-3-yl]phenyl]-2-(2H-tetrazol-5-yl)-6-(trifluoromethyl)benzenesulfonamide] | – | – | – | – | – | – | 1.18 nM | 9.14 nM | 9.32 nM | 3.125 µM | 6.25 µM | 6.25 µM | –
CC1(O)CN(c2ccc(-c3cccc(S(N)(=O)=O)c3-c3nnn[nH]3)cn2)C1 [Example 635, 3-[6-(3-hydroxy-3-methyl-azetidin-1-yl)-3-pyridyl]-2-(1H-tetrazol-5-yl)benzenesulfonamide] | – | – | – | – | – | – | 258 nM | 91.5 nM | 4.92 nM | 7.813 µM | 2.148 µM | 112.5 µM | –
NC[C@H]1CC[C@H](c2ccc(CC3CCNCC3)c(S(N)(=O)=O)c2-c2nn[nH]n2)CC1 [Example 590, 3-((1r,4r)-4-(aminomethyl)cyclohexyl)-6-(piperidin-4-ylmethyl)-2-(2H-tetrazol-5-yl)benzenesulfonamide] | – | – | – | – | – | – | 8.35 nM | 24.5 nM | 8.27 nM | 2.344 µM | 1.172 µM | 2.344 µM | –
NS(=O)(=O)c1c(C(F)(F)F)ccc(N2CC[C@H](CO)[C@H](F)C2)c1-c1nnn[nH]1 [Example 663, 3-[(3S,4R)-3-fluoro-4-(hydroxymethyl)piperidin-1-yl]-2-(1H-tetrazol-5-yl)-6-(trifluoromethyl)benzenesulfonamide] | – | – | – | – | – | – | 0.79 nM | 2.94 nM | 2.46 nM | 0.125 µM | 0.8906 µM | 3.125 µM | –
N=C(N)N1CC(c2ccc(-c3ccc(C(F)(F)F)c(S(N)(=O)=O)c3-c3nn[nH]n3)cc2)C1 [Example 434, 3-(3′-sulfamoyl-2′-(2H-tetrazol-5-yl)-4′-(trifluoromethyl)-[1,1′-biphenyl]-4-yl)azetidine-1-carboximidamide] | 1.85 nM | 1.78 nM | 0.09375 µM | 0.543 µM | 0.7656 µM | 0.175 nM | – | – | – | – | – | – | –
NS(=O)(=O)c1c(CCO)ccc(-c2cccc3ncccc23)c1-c1nn[nH]n1 [Example 530, 6-(2-Hydroxyethyl)-3-(quinolin-5-yl)-2-(2H-tetrazol-5-yl)benzenesulfonamide] | – | – | – | – | – | – | 0.3 nM | 25.9 nM | 1.15 nM | 0.5859 µM | 3.125 µM | 4.688 µM | –
